Experimental data reported in US7381540B2, “Composition for measuring glucose having improved substrate specificity” (Toyo Boseki Kabushiki Kaisha, priority 2005, dated 2008).

Tests used:
[1] = tested on: modified PQQGDH; assay: Substrate specificity using glucose assay system (ferricyanide reduction, absorbance 420 nm); format: biochemical; details: potassium phosphate buffer pH 7.0
[2] = tested on: modified PQQGDH; assay: as above; format: biochemical; details: for activity with respect to maltose compared with the control (in words): substrate concentration of 4.8 mM, in some cases
Protocol: D-glucose+ferricyanide ion+PQQGDH D-glucono-1,5-lactone+ferrocyanide ion
Specificity to each substrate can be determined by changing D-glucose to other saccharides. The presence of the ferrocyanide ion produced by reduction of the ferricyanide ion was confirmed by measuring the decrease of absorbance at a wavelength of 420 nm by spectrophotometry.
A. […]
B. Potassium ferricyanide solution: 50 mM (0.165 g potassium ferricyanide (molecular weight: 329.25) dissolved in 10 ml of distilled water)
C. PQQGDH solution: 31000 U/ml (approx. 128 mg PQQGDH (Toyobo: GLD-331) dissolved in 5 ml of distilled water)
D. Substrate solution (D-glucose solution or maltose solution): 100 or 400 mM
• 1. The following reaction mixture was prepared in a light shielding bottle, and stored on ice (prepared at use). 48.2 mL of each buffer solution (pH6.5) (A) • 4.0 mL of potassium ferricyanide solution (B) • 0.19 mL of (C) • 2. 2.65 ml of the reaction mixture and 0.3 ml of additive were placed in a test tube (plastic) and pre-warmed for 5 minutes at 37° C. • 3. 0.15 ml of substrate solution (D) were added and mixed gently. • 4. The reduction in the absorbance relative to water at 420 nm was recorded for 1 to 3 minutes with a spectrophotometer while maintaining at a temperature of 37° C., and the ΔOD per minute was calculated from the initial linear portion of the curve (ΔOD test). At the same time, the same procedure was carried out with the exception of adding distilled water instead of glucose solution followed by measurement of the blank (ΔOD blank).
The above-mentioned procedure was carried out at each of the predetermined concentrations shown in Tables 1 to 3 using as additives succinic acid, adipic acid, suberic acid, pimeric acid, potassium chloride, ammonium chloride, diammonium hydrogen citrate, malonic acid, L-lysine, taurine, 3,3-dimethylglutaric acid, malic acid, glutaric acid, calcium glycerate, amino-n-butyric acid, sodium glycolate, sodium α-ketoglutarate, fumaric acid, glycerin, glutamic acid and serine. And the procedure was also carried out for those not containing additives to assess the effects of additives.
Variation in absorbance per unit time was determined by calculating ΔOD/min(ΔOD test−ΔOD blank)
To evaluate whether activity had declined with respect to sugars other than glucose, the ΔOD/min (a) with D-glucose as the substrate solution and the ΔOD/min (b) with the other sugar in place of D-glucose as the substrate solution were measured, and the relative value ((b)/(a)×100) was calculated given 100 as the measurement value with glucose as the substrate.
In each of Tables 3 to 5, in the case the value of the ratio of measured values of maltose and glucose (maltose/glucose) relative to the control (control: no addition) is small, activity with respect to maltose during glucose measurement decreases.

[3] = tested on: modified PQQGDH; assay: Maltose activity of glucose electrode loaded with modified PQQGDH (oxidation current, potassium ferricyanide mediator); format: biochemical, Acinetobacter baumannii strain NCIMB11517; details: for Maltose Activity of Glucose Electrode: 50 mM solvent, 1 mM calcium chloride, 0.1% Triton X-100; for Maltose Activity (%): solute 50 mM, pH 5.5, glucose or maltose 4 mM, 0.1 M potassium ferricyanide, +0.35 V, 25° C.
Protocol: 0.5 g of carbon graphite were placed in a mortar followed by the addition of 0.3 ml of liquid paraffin and kneading with a pestle for 30 minutes to produce a carbon paste. The resulting carbon paste was spread onto a platinum electrode followed by the addition of 10 μl of the modified PQQGDH solution (2,000 U/ml) produced in Example 2 and air drying for 30 minutes at room temperature. A cut cellulose semi-permeable membrane (molecular weight: 8,000) was placed over the dried enzyme electrode and the semi-permeable membrane was immobilized with plastic O-rings. The glucose electrode produced in this manner was then used after preliminarily immersing in the cold reaction solvent for 30 minutes.
The substances listed in Table 1 were used as solutes, and buffers were respectively prepared having a final concentration of 50 mM (pH 5.5). Each of the solvents contained an activator/stabilizer in the form of calcium chloride at 1 mM and surfactant in the form of 0.1% Triton X-100 in addition to the solute listed in Table 1. Potassium ferricyanide was dissolved in each of the produced solvents to a concentration of 0.1 M to prepare reaction solutions.
50 mM phosphoric acid or pimeric acid solution containing 1 mM calcium chloride and 0.1% Triton X-100 (consisting of three types having pH values of 5.0, 6.0 and 7.0, respectively) were prepared. Maltose activity of the glucose electrode was investigated for each according to the method of Example 5.

[4] = reagent 0.5%, substrate 4.8 mM, control 0.85
[5] = reagent 1%, substrate 4.8 mM, control 0.85
[6] = reagent 2%, substrate 4.8 mM, control 0.85
[7] = reagent 2%, substrate 19.2 mM, control 0.93
[8] = glutaric acid buffer pH 7.0, reagent 0.1%, substrate 4.8 mM, control 0.86
[9] = glutaric acid buffer pH 7.0, reagent 0.1%, substrate 19.2 mM, control 0.94
[10] = glutaric acid buffer pH 7.0, reagent 1%, substrate 4.8 mM, control 0.86
[11] = glutaric acid buffer pH 7.0, reagent 1%, substrate 19.2 mM, control 0.94
[12] = phthalic acid buffer pH 7.0, reagent 0.05%, substrate 4.8 mM, control 0.72
[13] = phthalic acid buffer pH 7.0, reagent 0.05%, substrate 19.2 mM, control 0.75
[14] = phthalic acid buffer pH 7.0, reagent 0.1%, substrate 4.8 mM, control 0.72
[15] = phthalic acid buffer pH 7.0, reagent 0.1%, substrate 19.2 mM, control 0.75
[16] = phthalic acid buffer pH 7.0, reagent 0.2%, substrate 4.8 mM, control 0.72
[17] = phthalic acid buffer pH 7.0, reagent 0.2%, substrate 19.2 mM, control 0.75
[18] = potassium phosphate buffer pH 7.0, reagent 0.5%, substrate 19.2 mM, control 0.93
[19] = potassium phosphate buffer pH 7.0, reagent 1%, substrate 19.2 mM, control 0.93

Compound | Maltose/glucose ratio [1, 4] | Maltose/glucose ratio [1, 5] | Maltose/glucose ratio [1, 6] | Maltose/glucose ratio [1, 7] | Maltose/glucose ratio [2, 8] | Maltose/glucose ratio [2, 9] | Maltose/glucose ratio [2, 10] | Maltose/glucose ratio [2, 11] | Maltose/glucose ratio [2, 12] | Maltose/glucose ratio [2, 13] | Maltose/glucose ratio [2, 14] | Maltose/glucose ratio [2, 15] | Maltose/glucose ratio [2, 16] | Maltose/glucose ratio [2, 17] | Maltose/glucose ratio [2, 18] | Maltose/glucose ratio [2, 19] | activity with respect to maltose compared with the control (in words) [2] | Maltose Activity (%) [3] [%] | further results
O=C(O)CCCCCC(=O)O [Pimeric acid] | 0.71 | 0.58 | 0.44 | 0.58 | 0.63 | 0.78 | 0.39 | 0.44 | 0.64 | 0.64 | 0.71 | 0.58 | 0.76 | 0.58 | 0.86 | 0.80 | did not decrease | 23.1 | maltose activity on lowering the pH (in words) ([3]; pH 5.0, 6.0, 7.0, compared with phosphoric acid): decrease more; Maltose Activity of Glucose Electrode ([3]; pH 5.0): 15.2%; Maltose Activity of Glucose Electrode ([3]; pH 6.0): 23.8%; Maltose Activity of Glucose Electrode ([3]; pH 7.0): 49.1%
O=C(O)CCC(=O)O [Succinic acid] | 0.65 | 0.47 | 0.34 | 0.45 | 0.55 | 0.75 | 0.35 | 0.52 | 0.65 | 0.56 | 0.73 | 0.57 | 0.77 | 0.60 | 0.84 | 0.62 | did not decrease | 22.5 | 
CC(C)(CC(=O)O)CC(=O)O [3,3-dimethylglutaric acid] | 0.60 | 0.44 | 0.41 | 0.49 | 0.56 | 0.76 | 0.37 | 0.47 |  |  |  |  |  |  | 0.82 | 0.64 |  | 14.9 | 
O=C(O)CCCCCCC(=O)O [Suberic acid] |  |  |  |  |  |  |  |  |  |  |  |  |  |  |  |  |  | 20.2 | Maltose/glucose ratio ([2]; glutaric acid buffer pH 7.0, reagent 0.03%, substrate 4.8 mM, control 0.86): 0.68; Maltose/glucose ratio ([2]; glutaric acid buffer pH 7.0, reagent 0.03%, substrate 19.2 mM, control 0.94): 0.86; Maltose/glucose ratio ([2]; glutaric acid buffer pH 7.0, reagent 0.33%, substrate 4.8 mM, control 0.86): 0.38; Maltose/glucose ratio ([2]; glutaric acid buffer pH 7.0, reagent 0.33%, substrate 19.2 mM, control 0.94): 0.49; Maltose/glucose ratio ([2]; phthalic acid buffer pH 7.0, reagent 0.017%, substrate 4.8 mM, control 0.72): 0.66; Maltose/glucose ratio ([2]; phthalic acid buffer pH 7.0, reagent 0.017%, substrate 19.2 mM, control 0.75): 0.69; Maltose/glucose ratio ([2]; phthalic acid buffer pH 7.0, reagent 0.033%, substrate 4.8 mM, control 0.72): 0.67; Maltose/glucose ratio ([2]; phthalic acid buffer pH 7.0, reagent 0.033%, substrate 19.2 mM, control 0.75): 0.62; Maltose/glucose ratio ([2]; phthalic acid buffer pH 7.0, reagent 0.066%, substrate 4.8 mM, control 0.72): 0.70; Maltose/glucose ratio ([2]; phthalic acid buffer pH 7.0, reagent 0.066%, substrate 19.2 mM, control 0.75): 0.55
O=C(O)CCCC(=O)O [Glutaric acid] |  |  |  |  | 0.65 | 0.81 | 0.34 | 0.54 |  |  |  |  |  |  |  |  |  | 22.1 | 
